Measured values taken from ChEMBL document CHEMBL1681705, “Optimisation of ITK inhibitors through successive iterative design cycles” (Bioorg Med Chem Lett, 2011).

Tests used:
[1] = target: Vascular endothelial growth factor receptor 2 (Homo sapiens) (UniProt P35968); experiment: Inhibition of KDR at 0.1 uM; values are per cent of control
[2] = target: T1, Ephrin type-B receptor 4 (Homo sapiens) (UniProt P54760); experiment: Inhibition of EphB4 at 1 uM; values are per cent of control
T1 sequence (whole entry): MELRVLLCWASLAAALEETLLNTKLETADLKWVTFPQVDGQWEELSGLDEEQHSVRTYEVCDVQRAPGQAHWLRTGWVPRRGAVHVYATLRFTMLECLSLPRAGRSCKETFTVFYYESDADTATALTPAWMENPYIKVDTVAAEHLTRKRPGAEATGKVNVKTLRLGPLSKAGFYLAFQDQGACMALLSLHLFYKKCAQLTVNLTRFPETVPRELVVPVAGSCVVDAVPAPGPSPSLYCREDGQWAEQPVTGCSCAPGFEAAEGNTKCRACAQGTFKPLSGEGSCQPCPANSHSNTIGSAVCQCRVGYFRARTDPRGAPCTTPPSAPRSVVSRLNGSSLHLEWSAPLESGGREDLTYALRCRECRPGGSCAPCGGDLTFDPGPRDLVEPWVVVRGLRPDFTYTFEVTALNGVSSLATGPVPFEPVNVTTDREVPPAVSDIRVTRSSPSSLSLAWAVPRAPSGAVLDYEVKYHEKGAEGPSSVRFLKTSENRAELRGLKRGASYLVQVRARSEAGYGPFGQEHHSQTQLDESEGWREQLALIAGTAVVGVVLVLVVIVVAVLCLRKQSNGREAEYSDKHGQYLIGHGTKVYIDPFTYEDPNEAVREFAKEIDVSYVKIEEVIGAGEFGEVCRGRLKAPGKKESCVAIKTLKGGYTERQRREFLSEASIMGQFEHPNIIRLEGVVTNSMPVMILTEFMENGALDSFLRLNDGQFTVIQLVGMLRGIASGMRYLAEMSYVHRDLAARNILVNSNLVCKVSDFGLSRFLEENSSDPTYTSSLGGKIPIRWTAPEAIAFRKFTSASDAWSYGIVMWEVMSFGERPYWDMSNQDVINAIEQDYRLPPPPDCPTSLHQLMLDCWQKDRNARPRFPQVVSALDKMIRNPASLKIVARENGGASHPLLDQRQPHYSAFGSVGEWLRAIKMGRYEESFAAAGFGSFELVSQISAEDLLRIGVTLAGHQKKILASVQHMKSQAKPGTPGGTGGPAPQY

[3] = target: T2, Aurora kinase A (Homo sapiens) (UniProt O14965); experiment: Inhibition of aurora-A at 0.1 uM; values are per cent of control
T2 sequence (whole entry): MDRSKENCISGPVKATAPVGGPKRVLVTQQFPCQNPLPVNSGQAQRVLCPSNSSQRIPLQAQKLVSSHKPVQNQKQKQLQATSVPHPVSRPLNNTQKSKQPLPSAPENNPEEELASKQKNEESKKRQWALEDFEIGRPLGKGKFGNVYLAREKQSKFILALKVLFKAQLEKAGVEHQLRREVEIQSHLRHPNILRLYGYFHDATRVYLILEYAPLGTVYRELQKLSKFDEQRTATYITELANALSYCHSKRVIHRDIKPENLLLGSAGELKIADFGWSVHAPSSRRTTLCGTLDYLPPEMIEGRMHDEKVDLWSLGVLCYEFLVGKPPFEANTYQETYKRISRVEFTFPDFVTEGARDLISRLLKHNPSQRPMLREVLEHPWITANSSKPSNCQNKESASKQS

[4] = target: T3, Ephrin type-A receptor 1 (Homo sapiens) (UniProt P21709); experiment: Inhibition of EphA1 at 1 uM; values are per cent of control
T3 sequence (whole entry): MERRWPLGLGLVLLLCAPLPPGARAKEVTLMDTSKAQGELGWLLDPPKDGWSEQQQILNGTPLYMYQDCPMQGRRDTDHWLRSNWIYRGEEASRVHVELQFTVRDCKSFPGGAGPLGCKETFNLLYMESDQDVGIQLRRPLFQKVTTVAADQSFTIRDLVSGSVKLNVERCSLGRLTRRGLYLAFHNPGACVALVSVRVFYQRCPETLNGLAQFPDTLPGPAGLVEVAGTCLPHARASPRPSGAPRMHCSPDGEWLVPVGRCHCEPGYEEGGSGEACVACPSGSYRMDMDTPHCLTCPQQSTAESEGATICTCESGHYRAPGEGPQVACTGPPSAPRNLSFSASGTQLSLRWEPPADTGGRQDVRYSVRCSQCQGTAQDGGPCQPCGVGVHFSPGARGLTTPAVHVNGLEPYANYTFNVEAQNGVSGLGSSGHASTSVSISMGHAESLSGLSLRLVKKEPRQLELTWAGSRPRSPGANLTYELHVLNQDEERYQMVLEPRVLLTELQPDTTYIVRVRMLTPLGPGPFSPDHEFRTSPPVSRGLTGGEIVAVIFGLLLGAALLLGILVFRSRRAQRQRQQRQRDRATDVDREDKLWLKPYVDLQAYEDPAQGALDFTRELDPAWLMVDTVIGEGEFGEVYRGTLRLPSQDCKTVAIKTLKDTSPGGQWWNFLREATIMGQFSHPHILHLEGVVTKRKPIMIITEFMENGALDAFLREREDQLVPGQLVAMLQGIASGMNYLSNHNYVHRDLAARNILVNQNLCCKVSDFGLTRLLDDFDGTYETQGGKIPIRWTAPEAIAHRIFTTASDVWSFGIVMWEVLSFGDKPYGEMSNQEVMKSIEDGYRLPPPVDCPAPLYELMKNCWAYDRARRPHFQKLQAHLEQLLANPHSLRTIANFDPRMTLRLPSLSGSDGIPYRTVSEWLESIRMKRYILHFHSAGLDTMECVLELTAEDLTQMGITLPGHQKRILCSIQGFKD

Vascular endothelial growth factor receptor 2 (Homo sapiens), sequence (P35968 whole entry): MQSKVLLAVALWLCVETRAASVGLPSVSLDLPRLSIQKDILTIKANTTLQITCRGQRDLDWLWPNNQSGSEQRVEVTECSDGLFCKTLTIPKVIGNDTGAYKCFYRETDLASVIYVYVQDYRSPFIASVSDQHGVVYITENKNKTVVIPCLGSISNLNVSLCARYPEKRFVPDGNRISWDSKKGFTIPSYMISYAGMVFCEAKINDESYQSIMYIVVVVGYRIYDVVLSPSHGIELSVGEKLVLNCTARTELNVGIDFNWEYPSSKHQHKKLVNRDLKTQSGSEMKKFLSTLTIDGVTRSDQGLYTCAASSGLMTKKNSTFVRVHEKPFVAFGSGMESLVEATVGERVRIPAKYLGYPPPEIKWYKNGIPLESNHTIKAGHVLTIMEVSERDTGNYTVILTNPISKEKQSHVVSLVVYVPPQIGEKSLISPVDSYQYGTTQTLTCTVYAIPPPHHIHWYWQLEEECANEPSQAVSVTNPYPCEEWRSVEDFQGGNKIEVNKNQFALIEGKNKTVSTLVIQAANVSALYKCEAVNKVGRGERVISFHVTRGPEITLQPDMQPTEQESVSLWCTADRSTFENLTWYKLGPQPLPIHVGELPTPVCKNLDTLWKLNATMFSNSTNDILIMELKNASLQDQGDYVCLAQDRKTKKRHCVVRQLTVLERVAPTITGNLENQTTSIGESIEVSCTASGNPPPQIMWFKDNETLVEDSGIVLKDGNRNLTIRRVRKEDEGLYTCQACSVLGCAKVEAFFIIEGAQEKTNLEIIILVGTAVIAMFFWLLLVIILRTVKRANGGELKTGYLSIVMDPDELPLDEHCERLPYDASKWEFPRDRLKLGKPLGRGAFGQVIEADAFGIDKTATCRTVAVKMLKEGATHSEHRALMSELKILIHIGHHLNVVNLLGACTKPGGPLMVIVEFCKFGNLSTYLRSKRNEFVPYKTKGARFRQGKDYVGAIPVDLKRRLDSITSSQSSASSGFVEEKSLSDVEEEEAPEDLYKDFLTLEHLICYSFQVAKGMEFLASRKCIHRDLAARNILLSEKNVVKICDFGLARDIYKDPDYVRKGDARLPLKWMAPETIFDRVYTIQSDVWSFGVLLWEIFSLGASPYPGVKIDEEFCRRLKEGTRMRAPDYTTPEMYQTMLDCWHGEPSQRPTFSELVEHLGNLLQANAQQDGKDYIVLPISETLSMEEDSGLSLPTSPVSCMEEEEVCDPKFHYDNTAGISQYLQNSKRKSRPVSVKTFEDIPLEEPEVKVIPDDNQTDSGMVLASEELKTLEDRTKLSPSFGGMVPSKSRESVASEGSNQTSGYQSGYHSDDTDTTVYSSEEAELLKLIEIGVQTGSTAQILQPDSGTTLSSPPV

Row | residual activity [1] | residual activity [2] | residual activity [3] | residual activity [4] | Compound
1 | 45% | 92% | 34% | 12% | Cc1ccc2cc(-c3n[nH]c4ccc(NC5CCN(Cc6ccccc6)CC5)cc34)[nH]c2c1
2 | 28% | 62% | 5% | 5% | Cc1ccc2cc(-c3n[nH]c4ccc(NC5CCNC5)cc34)[nH]c2c1 (stereo not drawn)
